Results from patent US20170211073A1, “ANTISENSE ANTINEOPLASTIC AGENT” (priority 2014, published 2017).
[BNA] = bridged nucleic acid nucleotide (BNA), bridge type not specified for this compound; d = 2'-deoxy (DNA)

Tests used:
[1] = system: vascular endothelial HUVEC cells; assay: Annexin V-FITC apoptosis observation; format: cell-based
[2] = system: HPAEC cells; assay: Cell cycle analysis by PI flow cytometry, HPAEC; format: cell-based; settings: 5 nM, 72 hours
Experimental: (§1) In order to elucidate the mechanism of the pancreatic cancer cell and endothelial cell proliferation inhibitory effect observed in Example 2, YB-1 ASO BNA (TCTcctgcaccCTGg, SEQ ID NO: 2, the parts of the capital letters in the sequence correspond to BNAs, the same shall apply to the following examples) was introduced at a concentration of 5 nM into the endothelial cells (1×10^5/well) under the same conditions as mentioned above. After 72 hours from the introduction, the cells were incubated with PI (1 μg/ml) at 37° C. for 30 minutes, and then cell cycle analysis was performed by using a flow cytometer (FACS CantoII).

[3] = system: HUVEC; assay: Cell cycle analysis by PI flow cytometry, HUVEC; format: cell-based; settings: 5 nM, 72 hours
Experimental: as §1

[4] = Safety of administration of YB-1 ASO BNA into blood, blood biochemical examinations
Experimental: YB-1 ASO BNA (indicated as “ASO-YBX1” in FIG. 7) at a concentration of 100 μg/200 μL or 200 μg/200 μL was administered once into the blood of nude mice from the caudal veins. After 48 hours, blood was collected, and examined by blood biochemical examinations for ALT, T-Bil, BUN, and creatinin in order to evaluate the liver and kidney functions.

[5] = General blood and biochemical examinations, mice with Suit2-GR sc tumor; settings: Suit2-GR sc Tumor; 10 mg/kg BW i.v. once a week for three weeks; blood one week after final treatment
Experimental: (§5) Subcutaneous tumor models were created by subcutaneously transplanting gemcitabine-resistant pancreatic cancer SUIT2-GR cells and large intestine cancer HCT116 cells to the thighs of nude mice. After tumors having a volume of 50 mm^3 were formed, 10 mg/kg BW of #10AmNA YB-1 antisense was administered from the caudal veins once a week over three weeks. The tumor diameters were measured over time.

[6] = General blood and biochemical examinations, mice with HCT116 sc tumor; settings: 10 mg/kg BW i.v. once a week for three weeks, blood one week after final treatment
Experimental: as §5

[7] = system: CDK1 and Cyclin B1; assay: Protein expression of CDK1 and Cyclin B1 in HUVEC and HPAEC cells; format: cell-based; settings: vs control antisense oligonucleotide
[8] = system: pancreatic cancer cells; assay: Proliferation by MTT assay, pancreatic cancer cells; format: cell-based; settings: final concentration 50 nM, vs control antisense oligo-nucleic acid
Experimental: (§2) Then, pancreatic cancer and vascular endothelial cell proliferation-suppressing effects of ASO#10 (also referred to as “YB-1 ASO”, TCTcctgcaccCTGg, SEQ ID NO: 2) were examined. The cells were inoculated into wells of a 96-well plate at a density of 60% confluent, ASO#10 was introduced into the pancreatic cancer cells at a final concentration of 50 nM, and endothelial cells at a final concentration of 5 nM on the next day by using the gene transduction reagent Lipofectamine RNAiMax, and then the proliferation ability was periodically measured by the MTT assay method. […] In addition, it was also confirmed that gastric cancer and breast cancer are also knocked down by ASO#10.

[9] = system: YB-1 and CD31; assay: Immunostaining of YB-1 and CD31 in frozen tumor sections; format: in vivo, nude mice; settings: HCT116 model; vs control antisense BNA
[10] = system: SUIT2 pancreatic cancer cells; assay: Administration of YB-1 ASO BNA into blood, SUIT2 subcutaneous tumor; format: in vivo, nude mice; settings: 200 μg/200 μL caudal vein, once a week, total 3 times
Description: (§3) The SUIT2 pancreatic cancer cells or HCT116 large intestine cancer cells were subcutaneously transplanted into the thighs of nude mice to prepare subcutaneous tumors in a size of 6 to 7 mm. […] YB-1 ASO BNA suppressed proliferation of the tumors to a size of ¼ to ⅕ of those observed with the control antisense BNA (FIG. 5).

[11] = system: HCT116 large intestine cancer cells; assay: Administration of YB-1 ASO BNA into blood, HCT116 subcutaneous tumor; format: in vivo, nude mice; settings: 200 μg/200 μL caudal vein, once a week, total 3 times
Description: as §3

[12] = system: vascular endothelial cells; assay: Proliferation by MTT assay, endothelial cells; format: cell-based; settings: final concentration 5 nM, vs control antisense oligo-nucleic acid
Experimental: as §2

[13] = system: MiaPaCa-luc pancreatic cancer cells; assay: Local administration into MiaPaCa-luc subcutaneous tumors, IVIS imaging; format: in vivo, nude mice; settings: 10 μM with atelocollagen 1:1, local, once a week, total twice; vs control antisense oligo BNA
Experimental: The MiaPaCa-luc pancreatic cancer cells stably expressing luciferase were subcutaneously transplanted into the thighs of nude mice to prepare subcutaneous tumors in a size of 6 to 7 mm. A mixture of YB-1 ASO BNA (final concentration, 10 μM) and atelocollagen implant at a volume ration of 1:1 was locally administered into the tumors (once a week, total twice), and the tumor volume (luciferase activity) was evaluated over time by IVIS imaging.

[14] = system: YB-1; assay: Screening of antisense oligo-nucleic acids by YB-1 expression-inhibitory ability in cancer cells (Lipofectamine RNAiMax); format: cell-based, human
[15] = system: YB-1; assay: YB-1 expression in tumor, liver, kidney after administration into blood, real-time RT-PCR; format: in vivo, nude mice; settings: HCT116 model, 200 μg/200 μL caudal vein, once a week, total 2 times, 48 hours after final administration
Experimental: After 48 hours from the final administration, subcutaneous tumors, livers, and kidneys were extracted, RNAs were extracted, and YB-1 expression was analyzed by real-time RT-PCR.

[16] = system: human pancreatic cancer SUIT2 cell strain, resistant strain; assay: Gemcitabine sensitivity of gemcitabine-resistant SUIT2 strain; format: cell-based; settings: SUIT-2
Experimental: (§4) A human pancreatic cancer SUIT2 cell strain was prepared by culturing pancreatic cancer cells resistant to the anticancer agent, gemcitabine, for a long period of time in a medium containing gemcitabine at a low concentration (IC50 value, 100 nM for the resistant strain vs. 5 nM for the parent strain). Subcutaneous tumors were prepared in the same manner as that of Example 10, and 200 μg/200 μL of YB-1 ASO AmNA or control antisense was administered into the blood according to the same protocol (once every two weeks, total 2 times).

[17] = system: human pancreatic cancer SUIT2 cell strain, parent strain; assay: Gemcitabine sensitivity of SUIT2 parent strain; format: cell-based; settings: SUIT-2
Experimental: as §4

Molecule: CATttcgaagtACTc (antisense CATTTCGAAGTACTC; sugars from the 5' end [BNA]3 d8 [BNA]3 d1, backbone and methylation of C not given here) [control antisense oligo-BNA, reference compound]
- Annexin V-positive cells [1]: hardly observed
- G2/M fraction [2]: 28.5%
- subG1 fractionation [2]: 1.3%
- G2/M fraction [3]: 22.1%
- subG1 fractionation [3]: 2.0%
- ALT, T-Bil, BUN, creatinin (liver and kidney functions) ([4]; 100 μg/200 μL or 200 μg/200 μL once, caudal vein, 48 hours): any functional abnormality was not observed
- liver function markers AST and T-Bil ([4]; repeatedly administered 3 times): did not show any functional abnormality

Molecule: CATttcgaagtACTc (antisense CATTTCGAAGTACTC; AmNA-modified units marked by uppercase, key not given here) [Ctrl]
- ALT [5]: 45 ± 19 IU/L
- AST [5]: 170 ± 183 IU/L
- BUN [5]: 27.9 ± 5.4 mg/dL
- CRE [5]: 0.10 ± 0.03 mg/dL
- HCT [5]: 38.5 ± 2.1%
- HGB [5]: 12.2 ± 0.6 g/dL
- PLT [5]: 100.5 ± 33.3 ×10^4/μl
- RBC [5]: 779 ± 39 ×10^4/μl
- T-BIL [5]: 0.03 ± 0.01 mg/dL
- WBC [5]: 29 ± 12 ×10^2/μl
- ALT [6]: 26 ± 3 IU/L
- AST [6]: 80 ± 10 IU/L
- BUN [6]: 21.2 ± 2.0 mg/dL
- CRE [6]: 0.07 ± 0.03 mg/dL
- HCT [6]: 35.7 ± 2.7%
- HGB [6]: 13.1 ± 0.3 g/dL
- PLT [6]: 136.2 ± 10.8 ×10^4/μl
- RBC [6]: 715 ± 55 ×10^4/μl
- T-BIL [6]: 0.06 ± 0.02 mg/dL
- WBC [6]: 48 ± 8 ×10^2/μl

Molecule: TCTcctgcaccCTGg (TCTCCTGCACCCTGG; chemistry not fully specified) [ASO#10]
- expression levels of CDK1 and Cyclin B1 [7]: clearly suppressed
- Annexin V-positive cells [1]: increase in Annexin V-positive cells
- G2/M fraction [2]: 14.0%
- subG1 fractionation [2]: 18.7%
- pancreatic cancer cell proliferation inhibitory effect [8]: Significantly higher
- expression of YB-1 and CD31 in tumor tissues (immunostaining) [9]: reduced
- tumor size as fraction of that with control antisense BNA [10]: ¼ to ⅕
- tumor size as fraction of that with control antisense BNA [11]: ¼ to ⅕
- endothelial cell proliferation inhibitory effect [12]: Significantly higher
- tumor volume (luciferase activity) [13]: significant suppression
- YB-1 knockdown in gastric cancer and breast cancer [14]: knocked down
- YB-1 expression in the tumors, livers, and kidneys as fraction of control antisense BNA ([15]; listed as YB-1 ASO BNA): about ⅓
- YB-1 expression in the tumors, livers, and kidneys as fraction of control antisense BNA ([15]; listed as YB-1 antisense oligo BNA): suppresses expression of YB-1
- G2/M fraction [3]: 14.5%
- subG1 fractionation [3]: 17.7%

Molecule: Nc1ccn([C@@H]2O[C@H](CO)[C@@H](O)C2(F)F)c(=O)n1 [gemcitabine]
- IC50 [16]: 100 nM
- IC50 [17]: 5 nM
